# Results: patent publication US20190054194A1, “System and Method For Evaluation of Subjects Using Magnetic Resonance Imaging and Oxygen-17” (Case Western Reserve University, priority 2017, published 2019)
# Assay: dynamic golden-angle 17O-MRI of H2^17O uptake and washout in brain after intravenous bolus injection (control and glioblastoma mice)
# Format: in vivo
# Source text: In one configuration, tumor and brain may be differentiated with the present methods, such as to assess the presence of a glioblastoma. […] For example, the method may allow for differentiation between subjects with a moderate tumor volume (<30%, GBM-M) and those with a large tumor volume (>30%, GBM-L). Once image reconstruction has been completed, ^17O images may be coregistered with the T2-weighted ^1H images. Tumor areas may show higher signal intensity in T2-weighted ^1H images due to having a longer T2 than normal brain tissue. Appropriate regions of interest (ROIs) that encompass the tumor and normal brain tissue may be drawn manually from T2-weighted ^1H images, or automatic segmentation routines may be used to define the ROIs. Total tumor and brain volumes may be calculated by adding the tumor and brain areas in all of the image slices. The percentage of tumor volume may then be calculated as the tumor volume divided by total brain volume.
# ^17O signal may be normalized by the corresponding natural abundance ^17O signal acquired before H2^17O injection or administration. Peak H2^17O uptake may be identified as the maximal signal intensity following H2^17O administration. A normalized time course of the ^17O signal from peak uptake to the end of the measurement may be fit to a monoexponential function in a pixel-wise fashion to generate the maps of peak and steady-state H2^17O uptake, as well as its washout rate. Mean values for each ROI may be calculated for each map. In tissue with no obvious washout phase or even continued accumulation of H2^17O after the injection, washout rate may be set to zero, while peak and steady-state H2^17O uptake may be calculated as the normalized ^17O signals immediately after H2^17O injection and at the end of measurement, respectively.
# [1] = GBM-L mice (large tumor volume >30%)
smiles,measurement,setting,value
"[17OH2] [H2^17O, ^17O-labeled water]",H2^17O uptake in normal brain tissue,[1],significantly reduced H2^17O uptake
same,H2^17O washout in normal brain tissue,[1],prolonged washout
same,H2^17O washout in tumors,[1],"no obvious washout phase, or even continuous accumulation of H2^17O after injection"
same,H2^17O uptake in tumors,GBM-M mice (moderate tumor volume <30%),reduced H2^17O uptake
same,H2^17O uptake and washout (17O signal kinetics) in brain,"control mice, after H2^17O injection",rapid uptake and washout
